Values joined by “and” are separate entries in the source; they are usually repeats but may differ in a detail not shown here. Equal values may be shown once. Blank lines part the entries; values can stand above or below the molecule they belong to.
Key:
Assay type in all cases: physicochemical
[1] = Dose uniformity, Dosage Unit Sampling Apparatus (DUSA), USP <601>; conditions: Spinhaler; for Total recovered / amount in Device + Capsule: listed as MOM; for amount in Device + Capsule: nominal 1000 μg MON, 400 μg MOM
Procedure: Dose uniformity was determined using Apparatus B (Dosage Unit Sampling Apparatus—DUSA) at a flow rate of 100 L/min (test described in United States Pharmacopoeia (USP) 27 Chapter <601>). The USP recommends selecting a flow rate that creates a pressure drop of 4 kPa across the inhaler. With the Spinhaler, a 4 kPa pressure drop could not be achieved even at the maximum flow rate of 100 L/min. Based on the recommendations of Byron, et al., a flow rate of 100 L/min was selected since the Spinhaler is a low resistance device. See Michael Hindle and Peter R. Byron, “Dose emissions from marketed dry powder inhalers”, International Journal of Pharmaceutics 116 (1995) 169-177. The test was run for 2.4 seconds in order to pull 4 L of air. After a shot had been delivered, all pieces of the DUSA including the mouthpiece adapter were rinsed with solvent. To determine the amount of drug retained in the inhaler, all pieces of the inhaler were rinsed with solvent including the interior of the capsule. The samples were then assayed using the UV-Vis spectrophotometer.
Shot weight was obtained by measuring the weight loss due to the actuation of the device. The device was tared, a “shot” was wasted in the DUSA and the device was re-weighed to obtain the delivered shot weight. Dose and shot weight were deemed acceptable if they were within 75% to 125% of the theoretical values (USP <601>).
(§1) Dose Uniformity (DU) was performed according to USP Chapter <601> by using DUSA Apparatus B with the Spinhaler® device which is analogous to that described in section Dose Uniformity for Example 1. However, the HPLC was used to analyze the content of the drugs as described in the Blend Uniformity in this example.
as §1, with “Uniformity” for “Uniformity (DU)”, “device and in a manner” for “device which is”, “Uniformity in” for “Uniformity for”, “Example 4, except” for “Example 1. However,”

[2] = Aerodynamic particle size distribution, Andersen cascade impaction (ACI); conditions: Spinhaler; for MMAD: cutoff diameter based on airflow rate of 28.3 L/min; for amount in ACI: including mouthpiece adapter
From the text: The Andersen cascade impaction (ACI) (Apparatus 3) was the device used to determine the aerodynamic size distribution. The impaction provided in vitro measurements of the fraction of the aerosol that has the potential to reach the alveolar region of the lung. This value is represented by the portion of particles detected below plate 2. The impaction was operated at the flow rate and test time according to the method described in USP <601>. Because the Spinhaler® is a low resistance device, it is difficult to achieve a pressure drop of 4 kPa, an adjustment of the air flow rate at the intake of the flow control was performed, as discussed above. Each impaction plate was coated with silicone grease (316 Dow Corning) to prevent particles from bouncing off the plates and returning to the air stream. All stages were used since the test flow rate was less than 60 L/min. All pieces of the impaction including the inhaler and capsule were rinsed with solvent, diluted to suitable volumes, sonicated, centrifuged and assayed using the UV-VIS spectrophotometer. The respirable portion was quantified by the in vitro fine particle fraction and fine particle mass. Dose uniformity and cascade impaction tests were carried out at controlled temperature (20-25° C.) and humidity (50% RH). […]
Aerodynamic size distribution was performed according to USP Chapter <601> by using ACI Apparatus 3 with the Spinhaler® device analogous to that described in section Aerodynamic Particle Size Distribution for Example 1. However, the HPLC was used to analyze the content of the drugs as described in the Blend Uniformity in this example.
Aerodynamic size distribution was performed according to USP Chapter <601> by using ACI Apparatus 3 with the Spinhaler® device in a manner analogous to that described in section Aerodynamic Particle Size Distribution in Example 4. The content of the drugs were analyzed as described in the Blend Uniformity in this example.

[3] = Blend uniformity (individual capsule assay); conditions: HPLC, Mean ± RSD
Procedure: To assess blend uniformity, capsules from each blend were opened and rinsed with methanol. The solution was sonicated for 5 minutes at room temperature, centrifuged at 3000 rpm for 15 minutes then assayed using a UV-VIS spectrophotometer at a wavelength of 346 nm. […]
To assess blend uniformity, the blend was sampled randomly from the glass vial. The drugs were extracted analogous to that described in section Blend Uniformity for Example 1. However, the content of montelukast acid and mometasone furoate were analyzed by High Performance Liquid Chromatography (HPLC) employing a phenyl column with a controlled temperature of 50° C., a mixture of water containing 0.2% trifluoroacetic acid (TFA) and acetonitrile containing 0.2% TFA (53:47) as the mobile phase at a flow rate 2 ml/min and UV-detection at 248 nm.
The blend uniformity was assessed in a manner analogous to that described in the Blend Uniformity section in Example 4, except the content of montelukast acid and ciclesonide were analyzed by High Performance Liquid Chromatography (HPLC) employing a phenyl column with a controlled temperature of 50° C., a mixture of water containing 0.2% trifluoroacetic acid (TFA) and acetonitrile containing 0.2% TFA (40:60) at a flow rate 2 ml/min and UV-detection at 248 nm.

[4] = Moisture and light sensitivity
[5] = Particle size of unmilled and jet milled API
[6] = Example 5 blend, listed as ciclesonide
[7] = Milled API, Microtrac data, after sonication for 60 seconds
[8] = Unmilled API, optical microscopy
[9] = Example 4 blend, flow 61.5 L/min for 3.9 sec
[10] = Example 4 blend, flow 62.3 L/min for 3.9 sec
[11] = Example 4 blend, flow 62.8 L/min for 3.8 sec
[12] = Example 4 blend, listed as mometasone furoate

DU based on nominal dose, % (Device + Capsule) ([1]; Example 5 blend): 35.2% | DU based on nominal dose, % (printed in Adapter + Filter column) ([1]; Example 5 blend): 61.7% | DU based on total recovered, % (Device + Capsule) ([1]; Example 5 blend): 36.3% | DU based on total recovered, % (printed in Adapter + Filter column) ([1]; Example 5 blend): 63.7% | FPD ([2]; Example 5 blend): 33.6 µg and 31.1 µg and 41.4 µg | FPF ([2]; Example 5 blend): 30.6% and 29.1% and 33.9% | GSD ([2]; Example 5 blend): 1.7 and 1.5 | Total recovered ([2]; Example 5 blend): 177 µg and 160 µg and 178 µg | amount in inhaler ([2]; Example 5 blend): 67 µg and 53 µg and 56 µg | MMAD ([2]; Example 5 blend): 3.6 μm and 3.8 μm | MMAD [2, 6]: 3.7 μm | MMAD ([2]; Example 5 blend, mean): 3.7 μm | amount in ACI ([2]; Example 5 blend): 110 µg and 107 µg and 122 µg | amount in ACI ([2]; Example 5 blend, mean): 113 µg | FPF [2, 6]: 31% | FPD ([2]; Example 5 blend, mean): 35.5 µg | FPF ([2]; Example 5 blend, mean): 31.2% | GSD ([2]; Example 5 blend, mean): 1.6 | Total recovered ([2]; Example 5 blend, mean): 172 µg | amount in inhaler ([2]; Example 5 blend, mean): 59 µg | Amount Recovered (μg/Capsule) ([3]; Example 5 blend (montelukast acid 4%, ciclesonide 0.64%)): 150.9 µg and 146.7 µg and 157.6 µg | Amount Recovered (μg/Capsule) ([3]; Example 5 blend (montelukast acid 4%, ciclesonide 0.64%), mean of three capsules): 151.1 ± 3.3 µg | Amount Recovered, % ([3]; Example 5 blend): 93.3% and 93.7% and 92.5% | Amount Recovered, % ([3]; Example 5 blend, mean of three capsules): 93.2 ± 0.6%
SMILES: CC(C)C(=O)OCC(=O)[C@@]12O[C@H](C3CCCCC3)O[C@@H]1C[C@H]1[C@@H]3CCC4=CC(=O)C=C[C@]4(C)[C@H]3[C@@H](O)C[C@@]12C [Ciclesonide, ciclesonide]

moisture and light sensitivity [4]: moisture sensitive and photosensitive | Particle size, 95% ([5]; Milled API, Aerosizer data): 7.832 microns | Particle size, Mean ([5]; Milled API, Aerosizer data): 2.832 microns | Particle size, 95% [5, 7]: 4.577 microns | Particle size, Mean [5, 7]: 2.794 microns | Particle size, 95% [5, 8]: 37 microns | Particle size, Mean [5, 8]: 11 microns
SMILES: O=C(NC1CC1)c1cn(-c2cccc(C#Cc3ccc[n+]([O-])c3)c2)c2ncccc2c1=O [Compound X, N-cyclopropyl-1-[3-(1-oxido-3-pyridinylethynyl)phenyl]-1,4-dihydro[1,8]-naphthyridin-4-one-3-carboxamide]

DU based on nominal dose, % (Device + Capsule) ([1]; Example 4 blend): 44.5% | DU based on nominal dose, % (printed in Adapter + Filter column) ([1]; Example 4 blend): 55.5% | DU based on total recovered, % (Device + Capsule) ([1]; Example 4 blend): 44.5% | DU based on total recovered, % (printed in Adapter + Filter column) ([1]; Example 4 blend): 55.5% | Total recovered [1, 9]: 397.04 µg and 394.77 µg and 399.78 µg | Total recovered [1, 10]: 408.74 µg and 407.23 µg | Total recovered [1, 11]: 394.15 µg and 396.73 µg | amount in Device + Capsule [1, 9]: 179.94 µg and 178.36 µg and 177.83 µg | amount in Device + Capsule [1, 10]: 165.97 µg and 165.37 µg | amount in Device + Capsule [1, 11]: 187.90 µg and 189.44 µg | FPD ([2]; Example 4 blend): 43.5 µg and 53.9 µg and 41.8 µg | FPF ([2]; Example 4 blend): 21.0% and 22.7% and 22.1% | GSD ([2]; Example 4 blend): 1.5 | Total recovered ([2]; Example 4 blend): 404 µg and 402 µg and 395 µg | amount in inhaler ([2]; Example 4 blend): 198 µg and 165 µg and 206 µg | MMAD ([2]; Example 4 blend): 3.9 μm and 4.1 μm | MMAD [2, 12]: 4.0 μm | MMAD ([2]; Example 4 blend, mean): 4.0 μm | amount in ACI ([2]; Example 4 blend): 207 µg and 237 µg and 189 µg | amount in ACI ([2]; Example 4 blend, mean): 211 µg | FPF [2, 12]: 22% | FPD ([2]; Example 4 blend, mean): 46.4 µg | FPF ([2]; Example 4 blend, mean): 21.9% | GSD ([2]; Example 4 blend, mean): 1.4 | Total recovered ([2]; Example 4 blend, mean): 400 µg | amount in inhaler ([2]; Example 4 blend, mean): 189 µg | Amount Recovered (μg/Capsule) ([3]; Example 4 blend (montelukast acid 4%, mometasone furoate 1.6%)): 386.8 µg and 371.6 µg and 389.5 µg | Amount Recovered (μg/Capsule) ([3]; Example 4 blend (montelukast acid 4%, mometasone furoate 1.6%), mean): 382.6 ± 2.6 µg | Amount Recovered, % ([3]; Example 4 blend): 93.9% and 93.5% and 95.8% | Amount Recovered, % ([3]; Example 4 blend, mean): 94.4 ± 1.4%
SMILES: C[C@@H]1C[C@H]2[C@@H]3CCC4=CC(=O)C=C[C@]4(C)[C@@]3(Cl)[C@@H](O)C[C@]2(C)[C@@]1(OC(=O)c1ccco1)C(=O)CCl [Mometasone Furoate, mometasone furoate]

Reference: patent US20100210611A1, “COMBINATION THERAPY” (priority 2007, published 2010)
